Patent US20090313709A1, “Genetically Modified Animal and Use Thereof” (priority 2006, published 2009)

How the values were obtained:
[1] = tested on: isolated islets of Langerhans derived from control mice; experiment: Insulin secretion from isolated islets of Langerhans of control mice with addition of palmitic acid; format: cell-based, mouse; conditions: 0.5 mM palmitic acid, 11 mM glucose, cultured 1 hour, insulin corrected by DNA amount
Procedure: (§1) Starting at 8 week-old, transgenic mice of the 47M strain and 23F strain were fed with a low-fat diet (D12450B, 10 kcal % fat, manufactured by Research Diets, Inc.) or a high-fat diet (D12492, 60 kcal % fat, manufactured by Research Diets, Inc.) for 8 weeks. Each mouse at 16 week-old had the duodenal side ligated, and the common bile duct cannulated, and a 1 mg/ml collagenase solution (manufactured by Wako Pure Chemical) was injected into the mouse pancreas. The pancreas receiving the injection was excised, placed in a tube containing the same collagenase solution, and shaken at 37° C. for 20 minutes. Subsequently, the solution was vigorously mixed for 30 seconds, and a Quenching buffer solution (Hanks Balanced Salt Solution comprising 0.001% DNaseI and 25 mM HEPES) containing 10% FBS was added to make a total volume of 20 ml. The solution was transferred to a Petri dish, and washed twice with the Quenching buffer solution, after which islets of Langerhans were recovered using a pipette under a microscopy, and this was used as the test sample. […] Meanwhile, after cultivation, islets of Langerhans were disrupted by sonication using a sonicator (manufactured by M & S Instruments Trading Inc.), the amount of DNA was determined using a Quant-iT™ Picogreen ds DNA Assay kit (manufactured by Molecular Probes), and the amount of insulin secreted was corrected.

[2] = tested on: isolated islets of Langerhans derived from human GPR40 gene transgenic mice of the 47M strain; experiment: Insulin secretion from isolated islets of Langerhans of human GPR40 gene transgenic mice (47M strain) with addition of palmitic acid; format: cell-based; conditions: transgenic mouse 47M strain islets; 0.5 mM palmitic acid, 11 mM glucose, cultured 1 hour; insulin corrected by DNA amount
Procedure: as §1

## CCCCCCCCCCCCCCCC(=O)O [palmitic acid]
[1]
  amount of insulin secreted, increase compared with the no-addition group: about 1.5 times
[2]
  amount of insulin secreted, increase compared with the no-addition group: about 6 times
